In patent US5250542A, “Peripherally selective piperidine carboxylate opioid antagonists” (Eli Lilly and Company, priority 1992, dated 1993):
Structures can show the parent of a compound that is named as a salt. Where two headings read alike, the source gives them in different places.

Key:
[1] = target: T1, peripheral opioid receptors (Mus musculus, UniProt P42866); test: precipitated diarrhea in morphine-maintained mice (peripheral opioid activity) and comparison with the writhing test; format: in vivo; settings: for Ratio (AD50 mouse writhing test / ED50 mouse diarrhea test): higher ratio = greater relative antagonism of peripheral opioid receptors; for ED50: mouse, 0.5 h, morphine-maintained mice, antagonist subcutaneous or oral, 30 min observation
T1 construct: Mice maintained (6 mice/cage) on 0.01M saccharin water with 1 g/1 morphine sulfate; from tissue; host or cells: living morphine-maintained mice (in vivo test; endogenous receptor)
Summary of the method: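 Morphine-dependent mice (1 g/l morphine sulfate in drinking water ≥10 days, withdrawn 45 min before dosing) received antagonist subcutaneously or orally, 5 mice/dose. Diarrhea (and jumping) were scored over 30 min and doses lowered to find the diarrhea threshold. Peripheral selectivity was taken as writhing AD50 divided by diarrhea ED50.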

opioid receptor = target: T2, opioid receptor (Mus musculus, UniProt P42866); test: mouse writhing analgesis test: block of morphine-induced analgesia; format: in vivo, CF-1 male mice; parameters: unit not given here; settings: dose of antagonist that reduced the inhibition of writhing produced by 1.25 mg/kg morphine sulfate to 50%; subcutaneous, 20 min before acetic acid
T2 construct: Five CF-1 male mice (Charles River, Portage, Mich.); from tissue; host or cells: living CF-1 male mice (in vivo test; endogenous receptor)
Summary of the method: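 Male CF-1 mice (~20 g, fasted overnight, n=5) dosed subcutaneously 20 min before i.p. 0.6% acetic acid; writhes counted for 10 min starting 5 min post-injection. Antagonism measured as blockade of morphine-induced inhibition of writhing, percent versus vehicle controls; ED50 defined as 50% writhing inhibition.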

mu receptor = target: T3, mu receptor (Rattus norvegicus, UniProt P33535); test: opioid receptor binding assay, [3H] NAL (tritiated naloxone), mu receptor; parameters: species or system rat (Male Sprague Dawley), brain minus cerebellum
T3 construct: rat whole brain minus cerebellum for mu was homogenized; from tissue; host or cells: brain of male Sprague Dawley rats, whole brain minus cerebellum, homogenate fraction
Summary of the method: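 Displacement of [3H]naloxone was measured on rat whole brain minus cerebellum membranes, preincubated 20 min and incubated 20 min at 37° C, with filtration separating bound ligand. Ki was derived from IC50 and ligand KD. Percent displacement was also recorded at 10 nM and 100 nM test compound.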

[2] = 20 min, read-out: % displacement at 10 nM, 10 nM test compound, [3H] naloxone 0.5 nM
[3] = 20 min, read-out: % displacement at 100 nM, 100 nM test compound, [3H] naloxone 0.5 nM
[4] = 20 min, 10 nM test compound, [3H] naloxone 0.5 nM, read-out: % displacement at 10 nM
[5] = 20 min, 100 nM test compound, [3H] naloxone 0.5 nM, read-out: % displacement at 100 nM
[6] = 20 min, read-out: % displacement at 100 nM
[7] = 20 min, read-out: % displacement at 10 nM

T3 sequence (P33535 whole entry): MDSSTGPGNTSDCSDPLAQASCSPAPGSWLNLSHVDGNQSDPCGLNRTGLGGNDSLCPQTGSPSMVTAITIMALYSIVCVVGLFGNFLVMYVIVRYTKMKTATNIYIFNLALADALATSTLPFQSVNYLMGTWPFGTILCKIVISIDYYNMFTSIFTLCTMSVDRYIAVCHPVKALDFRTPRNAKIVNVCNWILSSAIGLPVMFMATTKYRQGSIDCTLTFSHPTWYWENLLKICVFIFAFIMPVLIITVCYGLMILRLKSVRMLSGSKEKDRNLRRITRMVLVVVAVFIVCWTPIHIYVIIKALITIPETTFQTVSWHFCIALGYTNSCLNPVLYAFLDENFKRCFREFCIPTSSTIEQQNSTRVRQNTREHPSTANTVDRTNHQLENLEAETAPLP
T1 sequence (P42866 whole entry): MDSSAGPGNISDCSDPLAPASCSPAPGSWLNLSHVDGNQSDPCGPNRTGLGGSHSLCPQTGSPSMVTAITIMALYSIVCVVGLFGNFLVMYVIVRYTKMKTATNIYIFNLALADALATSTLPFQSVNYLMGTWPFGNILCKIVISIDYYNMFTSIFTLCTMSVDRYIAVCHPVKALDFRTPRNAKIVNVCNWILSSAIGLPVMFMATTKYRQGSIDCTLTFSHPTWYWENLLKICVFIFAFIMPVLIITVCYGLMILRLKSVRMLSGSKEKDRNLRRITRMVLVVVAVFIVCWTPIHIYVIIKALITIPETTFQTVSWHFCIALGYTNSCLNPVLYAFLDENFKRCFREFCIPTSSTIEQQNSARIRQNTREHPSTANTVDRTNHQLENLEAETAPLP
T2 sequence (P42866 whole entry): as above

SMILES | Ratio (AD50 mouse writhing test / ED50 mouse diarrhea test) [1] | ED50 [1] [mg/kg] | AD50 (opioid receptor) | Ki (mu receptor) [nM] | inhibition at 0.01 µM (mu receptor; [2]) [%] | inhibition at 0.1 µM (mu receptor; [3]) [%] | inhibition at 0.01 µM (mu receptor; [4]) [%] | inhibition at 0.1 µM (mu receptor; [5]) [%] | inhibition at 0.1 µM (mu receptor; [6]) [%] | Ki (mu receptor; [3H] naloxone 0.5 nM, pH 7.4, 37° C., 20 min) [nM] | inhibition at 0.01 µM (mu receptor; [7]) [%]
CCCNC(=O)CNC(=O)C(Cc1ccccc1)CN1CC[C@@](C)(c2cccc(O)c2)[C@@H](C)C1 (stereo partly drawn) [Example 49, N-2-propylamino-2-oxoethyl]-3-[4-(3-hydroxyphenyl)-3,4-dimethyl-1-piperidinyl]-2-phenylmethyl propanamide monohydrate hydrochloride] | 61 | 0.1 | 6.08 | 0.54 | 98 | 100 | – | – | – | – | –
CC(C)CNC(=O)CNC(=O)C(Cc1ccccc1)CN1CC[C@@](C)(c2cccc(O)c2)[C@@H](C)C1 (stereo partly drawn) [Example 50, N-2-[(2-methylpropyl)amino]-2-oxo-ethyl]-3-[3,4-dimethyl-4-(3-hydroxyphenyl)-1-piperidinyl-2-phenylmethyl propanamide monohydrate hydrochloride] | 26 | 0.54 | 14.3 | 1.2 | 94 | 100 | – | – | – | – | –
CC(C)OC(=O)CNC(=O)C(Cc1ccccc1)CN1CC[C@@](C)(c2cccc(O)c2)[C@@H](C)C1 (stereo partly drawn) [Example 51, 2-[[2-(phenylmethyl)-3-[4-(3-hydroxyphenyl)-3,4-dimethyl-1-piperidinyl]-1-oxopropyl]-amino]ethanoic acid 2-propyl ester monohydrochloride] | 25 | 0.15 | 3.8 | 5.43 | 85 | 97 | – | – | – | – | –
C[C@H]1CN(CC(Cc2ccccc2)C(=O)NCC(=O)OCC2CCCCC2)CC[C@@]1(C)c1cccc(O)c1 (stereo partly drawn) [Example 53, 2-[[2-(phenylmethyl)-1-oxo-3-[4-(3-hydroxyphenyl)-3,%-dimethyl-1-piperidinyl]propylamino]-ethanoic acid cyclohexylmethyl estermonohydrochloride] | > 23 | 1.7 | > 40 | – | – | – | 2 | 11 | – | – | –
CC(C)COC(=O)CNC(=O)C(Cc1ccccc1)CN1CC[C@@](C)(c2cccc(O)c2)[C@@H](C)C1 (stereo partly drawn) [Example 54, 2-[2-(phenylmethyl)-1-oxo-3-4-(3-hydroxyphenyl)-3,4-dimethyl-1-piperidinyl]propyl]amino]-ethanoic acid 2-methylpropyl ester monohydrochloride] | 1150 | 0.02 | 23 | – | 78 | – | – | – | 98 | 2.27 | –
C[C@H]1CN(CC(Cc2ccccc2)C(=O)NCC(=O)OCc2ccccc2)CC[C@@]1(C)c1cccc(O)c1 (stereo partly drawn) [Example 55, 2-[[2-(phenylmethyl)-1-oxo-3-[4-(3-hydroxyphenyl)3,4-dimethyl-1-piperidinyl]propyl]amino]-ethanoic acid phenylmethyl ester hydrochloride] | 63 | 0.12 | 7.5 | – | – | – | – | – | 97 | – | 83
C[C@H]1CN(CC(Cc2ccccc2)C(=O)NCCC(=O)OCc2ccccc2)CC[C@@]1(C)c1cccc(O)c1 (stereo partly drawn) [Example 56, hydrochloride] | 667 | 0.06 | 40 | 0.49 | 97 | – | – | – | 98 | – | –
C[C@H]1CN(CC(Cc2ccccc2)C(=O)NCCC(=O)O)CC[C@@]1(C)c1cccc(O)c1 (stereo partly drawn) [Example 57, monohydrate] | > 400 | 0.1 | > 40 | 0.5 | – | – | – | – | 98 | – | 92
CNC(=O)CCNC(=O)C(Cc1ccccc1)CN1CC[C@@](C)(c2cccc(O)c2)[C@@H](C)C1 (stereo partly drawn) [Example 59, N-(methyl)-3-[[3-[4-(3-hydroxyphenyl)-3,4-dimethyl-1-piperidinyl]-2-(phenylmethyl)-1-oxopropyl]amino]propanamide monohydrochloride] | 11 | 0.54 | 5.9 | 4.64 | 88 | 100 | – | – | – | – | –
CCNC(=O)CCNC(=O)C(Cc1ccccc1)CN1CC[C@@](C)(c2cccc(O)c2)[C@@H](C)C1 (stereo partly drawn) [Example 60, N-(ethyl)-3-[[3-[4-(3-hydroxyphenyl)-3,4-dimethyl-1-piperidinyl]-2-(phenylmethyl)-1-oxopropyl]amino]propanamide monohydrochloride] | 112 | 0.1 | 11.2 | 1.89 | 100 | 100 | – | – | – | – | –
CNC(=O)CCCNC(=O)C(Cc1ccccc1)CN1CC[C@@](C)(c2cccc(O)c2)[C@@H](C)C1 (stereo partly drawn) [Example 62, N-(methyl)-4-[[3-]4-(3-hydroxyphenyl)-3,4-dimethyl-1-piperidinyl]-2-(phenylmethyl)-1-oxopropyl]amino]butanamide monohydrochloride monohydrate] | 122 | 0.15 | 18.3 | 1.18 | 89 | – | – | – | 98 | – | –
C[C@H]1CN(CC(Cc2ccccc2)C(=O)NCCCC(N)=O)CC[C@@]1(C)c1cccc(O)c1 (stereo partly drawn) [Example 63, 4-[[3-[4-(3-hydroxyphenyl)-3,4-dimethyl-1-piperidinyl]-2-(phenylmethyl)-1-oxopropyl]-amino]butanamide monohydrochloride] | 90 | 0.29 | 26 | 2 | 89 | 100 | – | – | – | – | –
CCNC(=O)CCCNC(=O)C(Cc1ccccc1)CN1CC[C@@](C)(c2cccc(O)c2)[C@@H](C)C1 (stereo partly drawn) [Example 64, N-(ethyl)-4-[[3-4-(3-hydroxyphenyl)-3,4-dimethyl-1-piperidinyl]-2-(phenylmethyl)-1-oxopropyl]amino]butanamide monohydrochloride] | > 45 | 0.9 | > 40 | 1.23 | 94 | 100 | – | – | – | – | –
CCOC(=O)CN(C)C(=O)C(Cc1ccccc1)CN1CC[C@@](C)(c2cccc(O)c2)[C@@H](C)C1 (stereo partly drawn) [Example 65, [[2-[[4-(3-hydroxyphenyl)-3,4-dimethyl-1-piperidinyl]methyl]-1-oxo-3-phenylpropyl]-methylamino]acetic acid ethyl ester monohydrochloride] | 3 | 0.92 | 2.8 | – | – | – | 57 | 95 | – | – | –
